Results on 2 compounds are retold here after patent US20180230160A1, “2-AMINO-7A-PHENYL-3,4,4A,5,7,7A-HEXAHYDROFURO[3,4-B]PYRIDINES AS BACE1 INHIBITORS” (H. Lundbeck A/S, priority 2015, published 2018).

Each structure is given as a SMILES string.

In test [1] the target is T1, human BACE1 (Homo sapiens, UniProt P56817). Description: BACE1 efficacy assay (FRET-based, commercial BACE1 kit). It counts as biochemical. The arrangement: purchased Life Technologies P2985. To be noted: 10 μM test compound. Here is the method: The efficacy assay was performed as a FRET-based assay using a commercially available BACE1 kit (Life Technologies, P2985). 2 μl test compound at 10 μM (final concentration) and 15 μl BACE1 enzyme from the kit (final concentration 3 nM) were preincubated for 15 minutes at room temperature before addition of 15 μl of substrate from the kit (250 nM final concentration) and incubated for additional 90 minutes at room temperature. The assay plate was subsequently read in a Pherastar (Ex540/Em590). The enzyme activity observed in presence of test compound were normalized to the enzyme activity observed in presence of buffer and 10 μM (final concentration) of the high affinity BACE1 reference inhibitor (S)-6-[3-Chloro-5-(5-prop-1-ynyl-pyridin-3-yl)-thiophen-2-yl]-2-imino-3,6-dimethyl-tetrahydropyrimidin-4-one, respectively. The efficacy of the test compounds was evaluated at 10 μM (final concentration) and defined as the percent inhibition of the enzyme activity using the equation % inhibition=100%−normalized enzyme activity in percent.

For test [2], the target named is T1, human BACE1. The experiment in a line: BACE1 binding assay (SPA-based radioligand binding). The arrangement: biotin (biotinylated form); made in house; host or cells: Freestyle HEK293 cells. The note with it: pH 4.5, 10 nM radioligand, Ki=IC50/(1+L/Kd). The essentials: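 SPA radioligand displacement: biotinylated human BACE1 (HEK293-expressed, 6 nM final) with 10 nM [3H]-isophthalamide ligand and streptavidin beads in 50 mM sodium acetate pH 4.5, 50 mM NaCl, 0.03% Tween-20, 1 h at room temperature. Non-specific binding defined with 1 μM reference inhibitor. IC50 converted to Ki via Cheng-Prusoff using saturation-derived Kd.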

The next test has as its system Aβ40 peptide. Description: Assessment of Aβ peptide levels in rat brain and plasma following BACE1 inhibition (Aβ40 ELISA). Format: in vivo. To be noted: 3 hours post dose, vs vehicle. The method, then: Assessment of Aβ Peptide Levels in Rat Brain and Plasma Following BACE1 Inhibition. Animals.
Young adult Male Sprague Dawley rats of approximately 250 g weight were purchased from Charles River and received 0-30 mg/kg of vehicle (10% HP betaCD+1M MeSO4, pH 2.5) or test compounds (dissolved in vehicle) only by oral gavage (p.o). The compounds are dosed at a volume of 5 ml/kg. Cohorts of 5-10 animals were established for each treatment condition.
At T=180 minutes after initial dosing the animals were stunned and decapitated with a guillotine. Trunk-blood was sampled in EDTA coated tubes after decapitation of the animal. The blood was centrifuged at 2200G at 4° C. for 15 minutes and the plasma was collected and frozen at −80° C. The blood was aliquoted for Aβ ELISA and DMPK analysis. Immediately following sacrifice, the brain was extracted and split into 2 halves. The right hemibrains were snap frozen on dry ice and stored at −80° C. The left half was dissected; with the front forebrain taken for Aβ ELISA and the remainder used for DMPK analysis. These samples were also snap frozen on dry ice and stored at −80° C. until use for analysis.
The cortex samples were thawed slightly on wet ice before they were homogenized with a small volume dispersing instrument (T10 basic ULTRA-TURRAX®) which was set at speed 5 for approximately 5-7 sec. The tissue was processed in a 10 times volume of the weight, for example 100 mg of tissue was homogenized in 1000 μL of Homogenization buffer. Homogenization buffer: 50 ml Milli Q water+50 nM NaCl+0.2% Diethylamin (DEA)+1 tablet of Complete Protease inhibitor cocktail+1 nM 4-(2-aminoethyl) benzenesulfonyl fluoride hydrochloride irreversible serine protease inhibitor (AEBSF).
After homogenization 450 μL aliquots of the samples are collected into a 1.5 ml Eppendorf tube and placed on wet ice, 0.5% NP-40 (50 ul) was added to all samples and then they were incubated on ice for 30 min. After which all samples were sonicated using an Ultrasonic homogenizer with 20 kHz homogeneous sound (SONOPLUS HD2070, Bandelin Electronic) 10 pulse set at 12-13% power to extract all the Aβ species. The samples were then centrifuged (Ole Dich 157 MPRF Micro centrifuge) at 20000G for 20 minutes at 4° C. After centrifugation 285 μL of the supernatant was pipetted into 600 μL microtubes tubes and neutralized with 15 μL of 1M Tris-HCL buffer.
WAKO 294-62501 Human/Rat Abeta amyloid (40) kit was used for all ELISA analyses. 30 μL plasma samples or 30 μL of the cortex supernatants generated as described above were placed in 600 μL microtubes tubes on wet ice. To this 30 μL of 8M urea (AppliChem A1049, 9025) was added to generate a 2-fold dilution. Both plasma and cortex supernatants were incubated on ice for 30 min. Standard rows were prepared from the standard peptide stock provided in the kit and standard diluent containing 1.6M urea (200 μL 8M urea+800 μL of standard diluent) and 0.8M urea (400 μL 8M Urea+3600 μL Standard diluent). A serial 2-fold dilution of Aβ40 from 100 pmol/ml to 0 pmol/L was prepared for the assay.
After incubation with urea, all samples were further diluted by addition of 5 times standard diluent from the Kit. This was done by adding 240 μL Standard Diluent to 60 μL sample/urea mixture, which was then mixed well. 100 μL of each diluted sample was pipetted into designated wells of the ELISA plate in duplicates. The plate was then covered and incubated overnight at 4° C. The following day, the ELISA kit was brought to room temperature before use. The incubated plate was washed 5 times with the 20× washing solution diluted in Milli Q water. 100 μL HRP-conjugate was applied to each well, and the plate was covered and incubates at 4° C. for 1 hr. The wash was repeated again for 5 times. 100 μL 3,3′,5,5′-Tetramethylbenzidine (TMB) solution was applied to each well and the plate was covered and incubated in the dark at room temperature for 30 minutes. […]
A general note: In an ELISA, binding on a coated surface is turned into a signal by an enzyme label.

Broadly, the inhibition is the change of the read-out against control, counted positive when it falls. As a reminder, the Ki is the equilibrium dissociation constant of an inhibitor or competing ligand from its target.

T1 sequence (P56817 46-501): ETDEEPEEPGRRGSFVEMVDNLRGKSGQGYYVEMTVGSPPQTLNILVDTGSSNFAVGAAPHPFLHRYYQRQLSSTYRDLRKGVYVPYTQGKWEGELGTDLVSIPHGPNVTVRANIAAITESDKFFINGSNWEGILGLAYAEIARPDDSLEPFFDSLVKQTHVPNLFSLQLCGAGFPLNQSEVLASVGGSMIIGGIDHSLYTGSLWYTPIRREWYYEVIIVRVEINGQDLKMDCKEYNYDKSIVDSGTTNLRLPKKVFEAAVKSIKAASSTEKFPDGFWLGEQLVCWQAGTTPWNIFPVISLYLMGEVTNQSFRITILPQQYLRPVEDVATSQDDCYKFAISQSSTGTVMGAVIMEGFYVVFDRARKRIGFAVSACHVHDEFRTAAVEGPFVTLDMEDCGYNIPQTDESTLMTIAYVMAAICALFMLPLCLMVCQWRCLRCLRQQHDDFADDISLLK

As for `COc1cnc(C(=O)Nc2ccc(F)c([C@]34COC[C@@]3(F)C[C@@](C)(F)C(N)=N4)c2)cn1` [Example 7, N-(3-((3R,4aR,7aS)-2-amino-3,4a-difluoro-3-methyl-3,4,4a,5,7,7a-hexahydrofuro[3,4-b]pyridin-7a-yl)-4-fluorophenyl)-5-methoxypyrazine-2-carboxamide], at human BACE1 [1], the inhibition at 10 µM was found to be 104%. On human BACE1 [2], this compound had a Ki of 11 nM. Also, the Aβ40 reduction with Aβ40 peptide (Brain, 10 mg/kg p.o.) stood at 48%; in the test with Aβ40 peptide (Brain, 30 mg/kg p.o.) it was 64%; with Aβ40 peptide (Plasma, 10 mg/kg p.o.) it was 42%; in the test on Aβ40 peptide (Plasma, 30 mg/kg p.o.), 50%.

Take `[2H]C([2H])([2H])Oc1ccc(C(=O)Nc2ccc(F)c([C@]34COC[C@H]3C[C@@](F)(CF)C(N)=N4)c2)nc1` [Example 22, N-(3-((3S,4aS,7aS)-2-amino-3-fluoro-3-(fluoromethyl)-3,4,4a,5-tetrahydrofuro[3,4-b]pyridin-7a-yl)-4-fluorophenyl)-5-(methoxy-d3)picolinamide]: the inhibition at 10 µM at human BACE1 [1] amounted to 99%. On human BACE1 [2], this compound came in with a Ki of 51 nM. The Aβ40 reduction in the test with Aβ40 peptide (Brain, 10 mg/kg p.o.) came to 23%; in the test on Aβ40 peptide (Brain, 30 mg/kg p.o.), 48%; with Aβ40 peptide (Plasma, 10 mg/kg p.o.) it was 33%; in the test with Aβ40 peptide (Plasma, 30 mg/kg p.o.), 43%.
